Paper PMC12707294 (Analytical chemistry, 2025)

Molecular target: hu3F8 Fab
Assay type: binding

GD2 hexasaccharide [GD2os]
Kd: 2300 ± 100 nM
